In US8530489B2 (Vertex Pharmaceuticals Incorporated, priority 2006, dated 2013):

target: PLK1 (Homo sapiens, UniProt P53350); experiment: PLK1 Inhibition Assay I (radioactive-phosphate incorporation); type: biochemical; details: Ki(app); PLK1 Inhibition Assay I or II (table does not say which)
In short: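 Ki(app) values came from non-linear regression of initial rates after background subtraction, with phosphopeptide measured by phosphocellulose filter binding and scintillation counting. PLK1 at 2 nM was preincubated with compound (typically from 10 μM, 2-fold dilutions) for 10 min, then run 240 min at 25° C with 350 μM [γ-33P]ATP and 450 μM peptide substrate in HEPES pH 7.5 buffer.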

Chain of PLK1 (P53350 whole entry): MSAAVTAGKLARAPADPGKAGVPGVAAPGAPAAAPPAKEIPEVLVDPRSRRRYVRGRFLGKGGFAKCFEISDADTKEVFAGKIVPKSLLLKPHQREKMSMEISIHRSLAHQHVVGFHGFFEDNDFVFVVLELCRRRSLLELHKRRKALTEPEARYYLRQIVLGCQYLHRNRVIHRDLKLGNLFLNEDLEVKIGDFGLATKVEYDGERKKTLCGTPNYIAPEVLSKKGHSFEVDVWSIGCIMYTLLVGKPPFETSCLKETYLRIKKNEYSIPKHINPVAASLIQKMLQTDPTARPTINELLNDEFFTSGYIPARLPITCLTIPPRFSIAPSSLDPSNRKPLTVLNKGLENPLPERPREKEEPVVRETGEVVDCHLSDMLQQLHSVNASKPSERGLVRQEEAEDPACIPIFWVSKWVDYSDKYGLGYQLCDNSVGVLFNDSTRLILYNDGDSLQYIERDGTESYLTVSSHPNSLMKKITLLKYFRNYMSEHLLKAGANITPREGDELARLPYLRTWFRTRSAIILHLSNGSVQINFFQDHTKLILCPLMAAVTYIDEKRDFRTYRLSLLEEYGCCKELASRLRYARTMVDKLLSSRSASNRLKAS

Row | Ki [nM] | Compound
1 | 3 to 40 | C[C@@H](Nc1ncc(C#N)c(-c2c[nH]c3ncc(C(F)(F)F)cc23)n1)C1CCNCC1 [Compound I-204, 2-((R)-1-(piperidin-4-yl)ethylamino)-4-(5-(trifluoromethyl)-1H-pyrrolo[2,3-b]pyridin-3-yl)pyrimidine-5-carbonitrile]
2 | 3 to 40 | C[C@@H](Nc1ncc(C#N)c(-c2c[nH]c3ncc(C(F)(F)F)cc23)n1)C(=O)NCCO [IA-12, (2R)-2-(5-cyano-4-(5-(trifluoromethyl)-1H-pyrrolo[2,3-b]pyridin-3-yl)pyrimidin-2-ylamino)-N-(2-hydroxyethyl)-propanamide]
3 | < 3 | CC(Nc1ncc(C#N)c(-c2c[nH]c3ncc(C(F)(F)F)cc23)n1)C1CCN(C(=O)N(C)C)CC1 (stereo not drawn) [Compound I-157, 4-(1-(5-cyano-4-(5-(trifluoromethyl)-1H-pyrrolo[2,3-b]pyridin-3-yl)pyrimidin-2-ylamino)ethyl)-N,N-dimethylpiperidine-1-carboxamide]
4 | > 40 | N#Cc1cnc(NCc2ccccc2)nc1-c1c[nH]c2ncc(C(F)(F)F)cc12 [Compound I-1, 2-(benzylamino)-4-(5-(trifluoromethyl)-1H-pyrrolo[2,3-b]pyridin-3-yl)pyrimidine-5-carbonitrile]
5 | 3 to 40 | N#Cc1cnc(NCc2cnc3[nH]ccc3c2)nc1-c1c[nH]c2ncc(C(F)(F)F)cc12 [Compound I-120, 2-((1H-pyrrolo[2,3-b]pyridin-5-yl)methylamino)-4-(5-(trifluoromethyl)-1H-pyrrolo[2,3-b]pyridin-3-yl)pyrimidine-5-carbonitrile]
6 | < 3 | C[C@@H](Nc1ncc(C#N)c(-c2c[nH]c3ncc(C(F)(F)F)cc23)n1)c1ccc(NC2CCN(C)CC2)nc1 [Compound I-297, 2-((R)-1-(6-(1-methylpiperidin-4-ylamino)pyridin-3-yl)ethylamino)-4-(5-(trifluoromethyl)-1H-pyrrolo[2,3-b]pyridin-3-yl)pyrimidine-5-carbonitrile]
7 | < 3 | C[C@@H](Nc1ncc(C#N)c(-c2c[nH]c3ncc(C(F)(F)F)cc23)n1)C1CCN(C(=O)[C@H]2C[C@@H](O)CN2)CC1 [Compound I-262, 2-((R)-1-(1-((2R,4R)-4-hydroxypyrrolidine-2-carbonyl)piperidin-4-yl)ethylamino)-4-(5-(trifluoromethyl)-1H-pyrrolo[2,3-b]pyridin-3-yl)pyrimidine-5-carbonitrile]
8 | > 40 | CC(C)(Nc1ncc(C#N)c(-c2c[nH]c3ncc(C(F)(F)F)cc23)n1)C(=O)NCCO [IA-14, 2-(5-cyano-4-(5-(trifluoromethyl)-1H-pyrrolo[2,3-b]pyridin-3-yl)pyrimidin-2-ylamino)-N-(2-hydroxyethyl)-2-methylpropanamide]
9 | < 3 | CCC(Nc1ncc(C#N)c(-c2c[nH]c3ncc(C(F)(F)F)cc23)n1)C1CCN(C(C)=O)CC1 (stereo not drawn) [Compound I-174, 2-(1-(1-acetylpiperidin-4-yl)propylamino)-4-(5-(trifluoromethyl)-1H-pyrrolo[2,3-b]pyridin-3-yl)pyrimidine-5-carbonitrile]
10 | 3 to 40 | CC(C)Nc1ncc(C#N)c(-c2c[nH]c3ncc(Nc4ccccc4)cc23)n1 [EG6, 2-(isopropylamino)-4-(5-(phenylamino)-1H-pyrrolo[2,3-b]pyridin-3-yl)pyrimidine-5-carbonitrile]
11 | 3 to 40 | N#Cc1cnc(NC2CCCCC2)nc1-c1c[nH]c2ncc(C(F)(F)F)cc12 [Compound I-10, 2-(cyclohexylamino)-4-(5-(trifluoromethyl)-1H-pyrrolo[2,3-b]pyridin-3-yl)pyrimidine-5-carbonitrile]
12 | < 3 | CC(=O)Nc1ccc(C(C)Nc2ncc(C#N)c(-c3c[nH]c4ncc(C(F)(F)F)cc34)n2)cc1 (stereo not drawn) [Compound I-121, N-(4-(1-(5-cyano-4-(5-(trifluoromethyl)-1H-pyrrolo[2,3-b]pyridin-3-yl)pyrimidin-2-ylamino)ethyl)phenyl)acetamide]
13 | > 40 | N#Cc1cnc(NCc2ccccc2Cl)nc1-c1c[nH]c2ncc(C(F)(F)F)cc12 [Compound I-17, 2-(2-chlorobenzylamino)-4-(5-(trifluoromethyl)-1H-pyrrolo[2,3-b]pyridin-3-yl)pyrimidine-5-carbonitrile]
14 | < 3 | CC(Nc1ncc(C#N)c(-c2c[nH]c3ncc(C(F)(F)F)cc23)n1)c1ccc(N2CCOCC2)nc1 (stereo not drawn) [Compound I-138, 2-(1-(6-morpholinopyridin-3-yl)ethylamino)-4-(5-(trifluoromethyl)-1H-pyrrolo[2,3-b]pyridin-3-yl)pyrimidine-5-carbonitrile]
15 | 3 to 40 | C[C@@H](Nc1ncc(C#N)c(-c2c[nH]c3ncc(C(F)(F)F)cc23)n1)c1ccc(N2CC[C@@H](N(C)C)C2)nc1 [Compound I-286, 2-((R)-1-(6-((R)-3-(dimethylamino)pyrrolidin-1-yl)pyridin-3-yl)ethylamino)-4-(5-(trifluoromethyl)-1H-pyrrolo[2,3-b]pyridin-3-yl)pyrimidine-5-carbonitrile]
16 | 3 to 40 | Cc1ccc(C)c(CNc2ncc(C#N)c(-c3c[nH]c4ncc(C(F)(F)F)cc34)n2)c1 [Compound I-60, 2-(2,5-dimethylbenzylamino)-4-(5-(trifluoromethyl)-1H-pyrrolo[2,3-b]pyridin-3-yl)pyrimidine-5-carbonitrile]
17 | > 40 | N#Cc1cnc(NCCN2CCOCC2)nc1-c1c[nH]c2ncc(C(F)(F)F)cc12 [Compound I-69, 2-(2-morpholinoethylamino)-4-(5-(trifluoromethyl)-1H-pyrrolo[2,3-b]pyridin-3-yl)pyrimidine-5-carbonitrile]
18 | < 3 | C[C@@H](Nc1ncc(C#N)c(-c2c[nH]c3ncc(C(F)(F)F)cc23)n1)C1CCN(C(=O)C2(O)CC2)CC1 [Compound I-220, 2-((R)-1-(1-(1-hydroxycyclopropanecarbonyl)piperidin-4-yl)ethylamino)-4-(5-(trifluoromethyl)-1H-pyrrolo[2,3-b]pyridin-3-yl)pyrimidine-5-carbonitrile]
19 | < 3 | CNc1ccc(C(C)Nc2ncc(C#N)c(-c3c[nH]c4ncc(C(F)(F)F)cc34)n2)cn1 (stereo not drawn) [Compound I-151, 2-(1-(6-(methylamino)pyridin-3-yl)ethylamino)-4-(5-(trifluoromethyl)-1H-pyrrolo[2,3-b]pyridin-3-yl)pyrimidine-5-carbonitrile]
20 | < 3 | CC(Nc1ncc(C#N)c(-c2c[nH]c3ncc(C(F)(F)F)cc23)n1)C1(F)CCN(C(=O)CN)CC1 (stereo not drawn) [Compound I-234, 2-(1-(1-(2-aminoacetyl)-4-fluoropiperidin-4-yl)ethylamino)-4-(5-(trifluoromethyl)-1H-pyrrolo[2,3-b]pyridin-3-yl)pyrimidine-5-carbonitrile]
21 | < 3 | C[C@@H](Nc1ncc(C#N)c(-c2c[nH]c3ncc(C(F)(F)F)cc23)n1)c1ccc(C(N)=O)cc1 [Compound I-176, 4-((1R)-1-(5-cyano-4-(5-(trifluoromethyl)-1H-pyrrolo[2,3-b]pyridin-3-yl)pyrimidin-2-ylamino)ethyl)benzamide]
22 | 3 to 40 | CC(=O)N1CCC([C@H](C)Nc2ncc(C#N)c(-c3c[nH]c4ncc(C(F)(F)F)cc34)n2)CC1 [Compound I-135, 2-((S)-1-(1-acetylpiperidin-4-yl)ethylamino)-4-(5-(trifluoromethyl)-1H-pyrrolo[2,3-b]pyridin-3-yl)pyrimidine-5-carbonitrile]
23 | < 3 | CC(Nc1ncc(C#N)c(-c2c[nH]c3ncc(C(F)(F)F)cc23)n1)C1CCN(CC#N)CC1 (stereo not drawn) [Compound I-166, 2-(1-(1-(cyanomethyl)piperidin-4-yl)ethylamino)-4-(5-(trifluoromethyl)-1H-pyrrolo[2,3-b]pyridin-3-yl)pyrimidine-5-carbonitrile]
24 | 3 to 40 | N#Cc1cnc(NC2CCCC2)nc1-c1c[nH]c2ncc(C(F)(F)F)cc12 [Compound I-73, 2-(cyclopentylamino)-4-(5-(trifluoromethyl)-1H-pyrrolo[2,3-b]pyridin-3-yl)pyrimidine-5-carbonitrile]
25 | < 3 | CNCC(=O)N1CCC(C(C)Nc2ncc(C#N)c(-c3c[nH]c4ncc(C(F)(F)F)cc34)n2)CC1 (stereo not drawn) [Compound I-189, 2-(1-(1-(2-(methylamino)acetyl)piperidin-4-yl)ethylamino)-4-(5-(trifluoromethyl)-1H-pyrrolo[2,3-b]pyridin-3-yl)pyrimidine-5-carbonitrile]
26 | 3 to 40 | N#Cc1cnc(NC2(C(=O)NCC(F)(F)F)CCCCC2)nc1-c1c[nH]c2ncc(Cl)cc12 [IA-3, 1-(4-(5-chloro-1H-pyrrolo[2,3-b]pyridin-3-yl)-5-cyanopyrimidin-2-ylamino)-N-(2,2,2-trifluoroethyl)cyclohexanecarboxamide]
27 | < 3 | C[C@@H](Nc1ncc(C#N)c(-c2c[nH]c3ncc(C(F)(F)F)cc23)n1)[C@H]1CC[C@@H](NC(=O)CO)CC1 [Compound I-212, N-((1S,4s)-4-((1R)-1-(5-cyano-4-(5-(trifluoromethyl)-1H-pyrrolo[2,3-b]pyridin-3-yl)pyrimidin-2-ylamino)ethyl)cyclohexyl)-2-hydroxyacetamide]
28 | < 3 | C[C@@H](Nc1ncc(C#N)c(-c2c[nH]c3ncc(C(F)(F)F)cc23)n1)C1CCCCC1 [Compound I-61, 2-((R)-1-cyclohexylethylamino)-4-(5-(trifluoromethyl)-1H-pyrrolo[2,3-b]pyridin-3-yl)pyrimidine-5-carbonitrile]
29 | < 3 | C[C@@H](Nc1ncc(C#N)c(-c2c[nH]c3ncc(C(F)(F)F)cc23)n1)C1CCN(C(=O)[C@@H]2CCC[C@@H]2N)CC1 [Compound I-246, 2-((R)-1-(1-((1R,2S)-2-aminocyclopentanecarbonyl)piperidin-4-yl)ethylamino)-4-(5-(trifluoromethyl)-1H-pyrrolo[2,3-b]pyridin-3-yl)pyrimidine-5-carbonitrile]
30 | < 3 | CC(Nc1ncc(C#N)c(-c2c[nH]c3ncc(C(F)(F)F)cc23)n1)C1CCN(C(=O)C2CC2)CC1 (stereo not drawn) [Compound I-159, 2-(1-(1-(cyclopropanecarbonyl)piperidin-4-yl)ethylamino)-4-(5-(trifluoromethyl)-1H-pyrrolo[2,3-b]pyridin-3-yl)pyrimidine-5-carbonitrile]
